Test results as given in patent US9302999B2, “Substituted triazoles as herbicides” (E. I. DU PONT DE NEMOURS AND COMPANY, priority 2012, dated 2016).

Columns and labels:
Assay type in all cases: in vivo
[1] = test system: pigweed (Amaranthus retroflexus); test: Test A pre-/postemergence: pigweed; details: for Pigweed plant response rating: Postemergence; for Plant response rating, Pigweed: Preemergence
Procedure, shortened: (§1)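 Visual 0–100 injury ratings (0 no effect, 100 complete control) taken about ten days after treatment, relative to untreated controls. Preemergence treatment was a directed soil spray; postemergence plants were 2–10 cm tall at one- to two-leaf stage. Soil: loam/sand blend.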

[2] = test system: wheat (Triticum aestivum); test: Test A pre-/postemergence: wheat; details: for Wheat plant response rating: Postemergence; for Plant response rating, Wheat: Preemergence
Procedure, shortened: as §1

[3] = test system: barnyardgrass (Echinochloa crus-galli); test: Test B flooded paddy: barnyardgrass; details: Flood; 250 g ai/ha; applied to paddy water at 2-leaf stage; visually evaluated after 13 to 15 days
Procedure, shortened: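 Plants were grown to the 2-leaf stage, then pots were flooded to 3 cm above the soil and compounds were applied directly into the paddy water. Water depth was held for the whole test; after 13 to 15 days in a greenhouse, injury was visually rated against untreated controls (0 = no effect, 100 = complete control).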

[4] = test system: ryegrass, Italian (Italian ryegrass, Lolium multiflorum); test: Test C pre-/postemergence: ryegrass, Italian
Procedure, shortened: (§2)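 Preemergence on seeds in loam/sand, postemergence on 2–18 cm (1–4-leaf) plants in peat-based medium; compounds in non-phytotoxic solvent with surfactant. After 13–15 days in greenhouse, visual rating versus controls, 0 (no effect) to 100 (complete control).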

[5] = test system: galium (catchweed bedstraw, Galium aparine); test: Test C pre-/postemergence: galium
Procedure, shortened: as §2

corn (Zea mays) = test: Test C pre-/postemergence: corn
Procedure, shortened: as §2

[6] = test system: large crabgrass (Digitaria sanguinalis); test: Test C pre-/postemergence: large crabgrass
Procedure, shortened: as §2

[7] = test system: foxtail, giant (giant foxtail, Setaria faberii); test: Test C pre-/postemergence: foxtail, giant
Procedure, shortened: as §2

[8] = test system: lambsquarters (Chenopodium album); test: Test C pre-/postemergence: lambsquarters
Procedure, shortened: as §2

[9] = 125 g ai/ha, 0 to 100 scale, 0 is no effect, 100 is complete control
[10] = 500 g ai/ha, visual rating on 0 to 100 scale (0 no effect, 100 complete control), approximately ten days
[11] = 125 g ai/ha, 0 to 100 scale (0 no effect, 100 complete control)
[12] = 500 g ai/ha, 0 to 100 scale, 0 is no effect, 100 is complete control
[13] = Postemergence, 31 g ai/ha, scale 0 to 100 (0 no effect, 100 complete control)
[14] = Postemergence, 62 g ai/ha, scale 0 to 100 (0 no effect, 100 complete control)
[15] = Postemergence, 125 g ai/ha, scale 0 to 100, 0 no effect, 100 complete control
[16] = Postemergence, 250 g ai/ha, scale 0 to 100
[17] = Preemergence, 31 g ai/ha, scale of 0 to 100, 0 is no effect, 100 is complete control
[18] = Preemergence, 62 g ai/ha, scale of 0 to 100, 0 is no effect, 100 is complete control
[19] = Preemergence, 125 g ai/ha, scale 0 to 100, 0 no effect, 100 complete control
[20] = Preemergence, 250 g ai/ha, scale 0 to 100, 0 no effect, 100 complete control
[21] = Preemergence, 62 g ai/ha, scale 0 to 100, 0 no effect, 100 complete control

Compound: Fc1ccc(-n2nc(Cc3ccnc(C(F)(F)F)c3)c(OC(F)F)n2)cc1 [Compound 25]
- Pigweed plant response rating [1, 9]: 100
- Pigweed plant response rating [1, 10]: 100
- Plant response rating, Pigweed [1, 11]: 100
- Plant response rating, Pigweed [1, 12]: 100
- Wheat plant response rating [2, 9]: 40
- Wheat plant response rating [2, 10]: 60
- Plant response rating, Wheat [2, 11]: 20
- Plant response rating, Wheat [2, 12]: 80
- Plant response rating, Barnyardgrass (0 to 100 scale, 0 is no effect, 100 is complete control) [3]: 30
- Plant response rating, Ryegrass, Italian [4, 13]: 5
- Plant response rating, Ryegrass, Italian [4, 14]: 5
- Plant response rating, Ryegrass, Italian [4, 15]: 5
- Plant response rating, Ryegrass, Italian [4, 16]: 5
- Plant response rating, Ryegrass, Italian [4, 17]: 5
- Plant response rating, Ryegrass, Italian [4, 18]: 35
- Plant response rating, Ryegrass, Italian [4, 19]: 45
- Plant response rating, Ryegrass, Italian [4, 20]: 90
- Plant response rating, Galium [5, 13]: 50
- Plant response rating, Galium [5, 14]: 50
- Plant response rating, Galium [5, 15]: 55
- Plant response rating, Galium [5, 16]: 55
- Plant response rating, Galium [5, 17]: 0
- Plant response rating, Galium [5, 18]: 15
- Plant response rating, Galium [5, 19]: 80
- Plant response rating, Galium [5, 20]: 98
- Plant response rating, Corn (corn (Zea mays); [13]): 20
- Plant response rating, Corn (corn (Zea mays); [14]): 20
- Plant response rating, Corn (corn (Zea mays); [15]): 20
- Plant response rating, Corn (corn (Zea mays); [16]): 25
- Plant response rating, Corn (corn (Zea mays); [17]): 0
- Plant response rating, Corn (corn (Zea mays); [21]): 0
- Plant response rating, Corn (corn (Zea mays); [19]): 5
- Plant response rating, Corn (corn (Zea mays); [20]): 10
- Plant response rating, Crabgrass, Large [6, 13]: 15
- Plant response rating, Crabgrass, Large [6, 14]: 20
- Plant response rating, Crabgrass, Large [6, 15]: 40
- Plant response rating, Crabgrass, Large [6, 16]: 65
- Plant response rating, Crabgrass, Large [6, 17]: 98
- Plant response rating, Crabgrass, Large [6, 18]: 100
- Plant response rating, Crabgrass, Large [6, 19]: 100
- Plant response rating, Crabgrass, Large [6, 20]: 100
- Plant response rating, Foxtail, Giant [7, 13]: 35
- Plant response rating, Foxtail, Giant [7, 14]: 45
- Plant response rating, Foxtail, Giant [7, 15]: 55
- Plant response rating, Foxtail, Giant [7, 16]: 60
- Plant response rating, Foxtail, Giant [7, 17]: 98
- Plant response rating, Foxtail, Giant [7, 18]: 100
- Plant response rating, Foxtail, Giant [7, 19]: 100
- Plant response rating, Foxtail, Giant [7, 20]: 100
- Plant response rating, Lambsquarters [8, 13]: 70
- Plant response rating, Lambsquarters [8, 14]: 80
- Plant response rating, Lambsquarters [8, 15]: 98
- Plant response rating, Lambsquarters [8, 16]: 98
- Plant response rating, Lambsquarters [8, 17]: 90
- Plant response rating, Lambsquarters [8, 18]: 90
- Plant response rating, Lambsquarters [8, 19]: 98
- Plant response rating, Lambsquarters [8, 20]: 98

Compound: FC(F)Oc1nn(-c2ccc(C(F)(F)F)cc2)nc1Cc1ccnc(C(F)(F)F)c1 [Compound 26]
- Pigweed plant response rating [1, 9]: 100
- Pigweed plant response rating [1, 10]: 100
- Plant response rating, Pigweed [1, 11]: 100
- Plant response rating, Pigweed [1, 12]: 100
- Wheat plant response rating [2, 9]: 60
- Wheat plant response rating [2, 10]: 80
- Plant response rating, Wheat [2, 11]: 50
- Plant response rating, Wheat [2, 12]: 80
- Plant response rating, Barnyardgrass (0 to 100 scale, 0 is no effect, 100 is complete control) [3]: 60
- Plant response rating, Ryegrass, Italian [4, 13]: 10
- Plant response rating, Ryegrass, Italian [4, 14]: 20
- Plant response rating, Ryegrass, Italian [4, 15]: 30
- Plant response rating, Ryegrass, Italian [4, 16]: 35
- Plant response rating, Ryegrass, Italian [4, 17]: 10
- Plant response rating, Ryegrass, Italian [4, 18]: 60
- Plant response rating, Ryegrass, Italian [4, 19]: 60
- Plant response rating, Ryegrass, Italian [4, 20]: 80
- Plant response rating, Galium [5, 13]: 50
- Plant response rating, Galium [5, 14]: 55
- Plant response rating, Galium [5, 15]: 75
- Plant response rating, Galium [5, 16]: 75
- Plant response rating, Galium [5, 17]: 50
- Plant response rating, Galium [5, 18]: 75
- Plant response rating, Galium [5, 19]: 100
- Plant response rating, Galium [5, 20]: 100
- Plant response rating, Corn (corn (Zea mays); [13]): 20
- Plant response rating, Corn (corn (Zea mays); [14]): 20
- Plant response rating, Corn (corn (Zea mays); [15]): 20
- Plant response rating, Corn (corn (Zea mays); [16]): 25
- Plant response rating, Corn (corn (Zea mays); [17]): 0
- Plant response rating, Corn (corn (Zea mays); [21]): 5
- Plant response rating, Corn (corn (Zea mays); [19]): 5
- Plant response rating, Corn (corn (Zea mays); [20]): 5
- Plant response rating, Crabgrass, Large [6, 13]: 20
- Plant response rating, Crabgrass, Large [6, 14]: 30
- Plant response rating, Crabgrass, Large [6, 15]: 40
- Plant response rating, Crabgrass, Large [6, 16]: 40
- Plant response rating, Crabgrass, Large [6, 17]: 98
- Plant response rating, Crabgrass, Large [6, 18]: 98
- Plant response rating, Crabgrass, Large [6, 19]: 100
- Plant response rating, Crabgrass, Large [6, 20]: 100
- Plant response rating, Foxtail, Giant [7, 13]: 25
- Plant response rating, Foxtail, Giant [7, 14]: 30
- Plant response rating, Foxtail, Giant [7, 15]: 45
- Plant response rating, Foxtail, Giant [7, 16]: 60
- Plant response rating, Foxtail, Giant [7, 17]: 98
- Plant response rating, Foxtail, Giant [7, 18]: 100
- Plant response rating, Foxtail, Giant [7, 19]: 100
- Plant response rating, Foxtail, Giant [7, 20]: 100
- Plant response rating, Lambsquarters [8, 13]: 80
- Plant response rating, Lambsquarters [8, 14]: 95
- Plant response rating, Lambsquarters [8, 15]: 98
- Plant response rating, Lambsquarters [8, 16]: 98
- Plant response rating, Lambsquarters [8, 17]: 70
- Plant response rating, Lambsquarters [8, 18]: 98
- Plant response rating, Lambsquarters [8, 19]: 98
- Plant response rating, Lambsquarters [8, 20]: 100
